System: CLP-induced sepsis mouse model
Experiment: Survival rate in cecal ligation and puncture (CLP)-induced sepsis mouse model
Format: in vivo
Conditions: ICR male mice; compound administered intravenously into tail 12 hours and 50 hours after surgery; FIG. 1
Description: The anti-inflammatory efficacy of the prepared compound was tested by the survival rate of peritonitis-induced sepsis mouse model. CLP-induced sepsis mouse models were prepared by in vivo methods to verify anti-inflammatory activity, and the preparation method is a widely used experimental method [Wang H, Nat. Med., 2004, 10, 1216-1221]. Forty 6-week-old ICR male mice were divided into 10 mice in each group and the survival rate was observed.
First, the male mice were given respiratory anesthesia using isoflurane, an incision of about 2 cm was made in the middle of the abdomen to take out the appendix adjacent to the intestine, a 5.0. mm portion from the tip of the appendix was ligated with a 3.0-silk suture and pierced once with a 22-gauge needle, and then the incision was closed again with a 4.0-silk suture. Sham mice were sutured without tying or piercing the appendix after incision, and the compound prepared 12 hours and 50 hours after surgery was administered intravenously into mouse tail.

CCN1c2nc(N3CCCC3)n(C)c2C(=O)C(c2ccc(Cl)cc2)S1(=O)=O (stereo not shown) [Compound 1-42, 3-(4-chlorophenyl)-1-ethyl-5-methyl-6-(pyrrolidin-1-yl)-3,5-dihydroimidazo[4,5-c][1,2]thiazine-4(1H)-one 2,2-dioxide]
survival rate of the CLP-induced sepsis mouse model increased compared to a group of which only CLP was performed: 60%
